Source: patent publication US4808607A, “Imidazole analogs of mevalonolactone and derivatives thereof for use in inhibiting cholesterol biosynthesis and lowering blood cholesterol level” (Sandoz Pharm. Corp., priority 1987, dated 1989)
Where two headings read alike, the source gives them in different places.

Assays:
[1] = test system: 3β-hydroxysterol synthesis (cholesterol biosynthesis); assay: Test B. In Vivo Cholesterol Biosynthesis Inhibition Test; parameters: species or system rat (male Wistar Royal Hart); details: Rattus norvegicus, read-out: ED50 in Test B (dose producing 50% inhibition of 3β-hydroxysterol synthesis)
Protocol: Test B. In Vivo Cholesterol Biosynthesis Inhibition Test: In vivo studies utilize male Wistar Royal Hart rats weighing 150±20 g. which have been kept for 7-10 days on an altered light cycle (6:30 A.M. - 6:30 P.M. dark) housed two per cage and fed powdered Purina Rat Chow and water ad libitum. Three hours before the diurnal maximum of cholesterol synthesis at mid-dark, the rats are administered orally the test substance (e.g., 0.001-200 mg./kg. body weight) dissolved or as a suspension in 0.5% carboxymethylcellulose in a volume of 1 ml./100 g. body weight. Controls receive vehicle alone. One hour after receiving the test substance (or the vehicle alone), the rats are injected intraperitoneally with about 25 μCi/100 g. body weight of sodium [1-^14 C]acetate 1-3 mCi/mmol. Two hours after mid-dark, blood samples are obtained under sodium hexobarbitol anesthesia, and the serum is separated by centrifugation. […] The [^14 C]digitonides are then counted by liquid scintillation spectrometry. After correcting for efficiencies, the results are calculated in nCi (nanocuries) of 3β-hydroxysterol formed per 100 ml. of serum.

[2] = biological target: T1, HMG-CoA reductase (Rattus norvegicus, UniProt P51639); assay: Test A. In Vitro Microsomal Assay of HMG-CoA Reductase Inhibition; type: biochemical, rat (male Sprague-Dawley)
T1 construct: In the assay the microsomes are the source of the HMG-CoA reductase enzyme; from tissue; host or cells: liver microsomes of male Sprague-Dawley rats
T1 sequence (P51639 1-887): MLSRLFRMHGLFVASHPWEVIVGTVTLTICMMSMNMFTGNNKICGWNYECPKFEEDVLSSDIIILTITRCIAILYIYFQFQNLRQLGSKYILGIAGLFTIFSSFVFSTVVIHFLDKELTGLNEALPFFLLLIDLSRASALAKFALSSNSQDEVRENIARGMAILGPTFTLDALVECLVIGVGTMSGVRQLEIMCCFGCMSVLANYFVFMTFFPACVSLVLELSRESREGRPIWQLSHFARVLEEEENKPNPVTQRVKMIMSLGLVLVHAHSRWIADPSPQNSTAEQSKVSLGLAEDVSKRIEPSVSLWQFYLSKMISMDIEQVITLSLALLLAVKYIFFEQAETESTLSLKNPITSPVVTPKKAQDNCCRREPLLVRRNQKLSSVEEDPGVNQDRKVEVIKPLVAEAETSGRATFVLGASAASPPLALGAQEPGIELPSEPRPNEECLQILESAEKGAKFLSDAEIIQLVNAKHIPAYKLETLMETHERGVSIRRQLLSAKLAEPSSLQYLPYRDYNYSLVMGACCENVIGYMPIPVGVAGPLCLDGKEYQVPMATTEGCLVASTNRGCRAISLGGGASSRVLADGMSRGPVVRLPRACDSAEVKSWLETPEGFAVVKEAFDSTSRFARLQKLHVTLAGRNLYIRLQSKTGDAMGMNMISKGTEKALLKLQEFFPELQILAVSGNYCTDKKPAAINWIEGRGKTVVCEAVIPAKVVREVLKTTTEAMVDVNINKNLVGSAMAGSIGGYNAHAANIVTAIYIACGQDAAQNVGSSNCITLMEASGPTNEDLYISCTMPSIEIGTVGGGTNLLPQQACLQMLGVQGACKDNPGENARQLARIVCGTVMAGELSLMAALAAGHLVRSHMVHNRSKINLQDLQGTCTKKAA
Protocol: The compounds of Formula I and the pharmaceutically acceptable acid addition salts thereof are competitive inhibitors of 3-hydroxy-3-methylglutaryl coenzyme A (HMG-CoA) reductase, the rate limiting enzyme in cholesterol biosynthesis, and, therefore, they are inhibitors of cholesterol biosynthesis.
Test A. In Vitro Microsomal Assay of HMG--CoA Reductase Inhibition:
200 μl. aliquots (1.08-1.50 mg./ml.) of rat liver microsomal suspensions, freshly prepared from male SpragueDawley rats (150-225 g. body weight), in Buffer A with 10 mmol. dithiothreitol are incubated with 10 μl. of a solution of the test substance in dimethylacetamide and assayed for HMG--CoA reductase activity as described in Ackerman et al., J. Lipid Res. 18, 408-413 (1977), the concentration of the test substance in the assay system being 0.0001-2,000 μmolar. In the assay the microsomes are the source of the HMG-CoA reductase enzyme which catalyzes the reduction of HMG-CoA to mevalonate. The assay employs a chloroform extraction to separate the product, [^14 C]mevalonolactone, formed by the HMG-CoA reductase reduction of the substrate, [^14 C]HMG-CoA. [^3 H]mevalonolactone is added as an internal reference. Inhibition of HMG-CoA reductase is calculated from the decrease in specific activity ([^14 C/^3 H]mevalonate) of test groups compared to controls.
The IC50 is the concentration of the test substance in the assay system calculated or observed to produce a 50% inhibition of HMG-CoA reductase activity.

[3] = oral, single dose, male rats, [1-14C]acetate i.p. 1 h after dose, serum 3β-hydroxysterols
[4] = rat liver microsomes, [14C]HMG-CoA substrate, test substance in dimethylacetamide, read-out: IC50 in Test A (50% inhibition of HMG-CoA reductase activity)

IC50 [2, 4] [nM]	Structure (SMILES)	ED50 [1, 3] [mg/kg]	ED50 ([1]; po, 1 h) [mg/kg]	IC50 [2] [nM]
2.6	CC(C)c1nc(-c2ccccc2)n(-c2ccc(F)cc2)c1/C=C/[C@@H](O)C[C@@H](O)CC(=O)O (relative stereo) [Example 2, Sodium (±)-erythro-(E)-3,5-dihydroxy-7-[1'-(4"-fluorophenyl)-4'-(1"-methylethyl)-2'-phenyl-1H-imidazol-5'-yl]hept-6-enoate]	0.025	–	–
–	CCC(C)C(=O)OC1CC(C)C=C2C=CC(C)C(CCC3CC(O)CC(=O)O3)C21 (stereo not shown) [Mevinolin, reference compound]	–	0.38	140
1010	CC[C@H](C)C(=O)O[C@H]1CCC=C2C=C[C@H](C)[C@H](CC[C@@H]3C[C@@H](O)CC(=O)O3)[C@H]21 [Compactin, reference compound]	3.5	–	–
2	CC(C)c1nc(-c2ccccc2)n(-c2ccc(F)cc2)c1/C=C/[C@@H](O)C[C@@H](O)CC(=O)O [Example 2A, Sodium (3R,5S)-(E)-3,5-dihydroxy-7-[1'-(4"-fluorophenyl)-4'-(1"-methylethyl)-2'-phenyl-1H-imidazol-5'-yl]hept-6-enoate]	0.02	–	–
36	CC(C)c1nc(-c2ccccc2)n(-c2ccccc2)c1/C=C/[C@@H](O)C[C@@H](O)CC(=O)O (relative stereo) [Example 10]	0.028	–	–
